Data from the supplement of paper PMC10307832.

Experiments:
Assay in all cases: relative viability (nuclei count vs DMSO), 5 days (fraction); higher = more cells survive
VX-702 + Pemetrexed = compound: NC(=O)c1ccc(N(C(N)=O)c2c(F)cccc2F)nc1-c1ccc(F)cc1F [VX-702] + Nc1nc2[nH]cc(CCc3ccc(C(=O)N[C@@H](CCC(=O)O)C(=O)O)cc3)c2c(=O)[nH]1 [Pemetrexed] (partner 0.2 µM)
Outline: (§1)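 Relative viability equals treated-well nuclei counts divided by vehicle-well nuclei counts. Counts came from 4× images of lung cancer cell lines grown in 1536-well plates for 5 days after pin-tool dosing on the day after seeding. Dosing used one drug alone or a fixed anchor-drug dose plus five library-drug doses (not always all listed) in √10 steps, and values are medians of duplicate plates.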

Dabrafenib + Linsitinib = compound: CC(C)(C)c1nc(-c2cccc(NS(=O)(=O)c3c(F)cccc3F)c2F)c(-c2ccnc(N)n2)s1 [Dabrafenib] + C[C@]1(O)C[C@@H](c2nc(-c3ccc4ccc(-c5ccccc5)nc4c3)c3c(N)nccn32)C1 [Linsitinib] (partner 1 µM)
Outline: as §1

VX-702 + Crizotinib = compound: NC(=O)c1ccc(N(C(N)=O)c2c(F)cccc2F)nc1-c1ccc(F)cc1F [VX-702] + C[C@@H](Oc1cc(-c2cnn(C3CCNCC3)c2)cnc1N)c1c(Cl)ccc(F)c1Cl [Crizotinib] (partner 1 µM)
Outline: as §1

VX-702 + Olaparib = compound: NC(=O)c1ccc(N(C(N)=O)c2c(F)cccc2F)nc1-c1ccc(F)cc1F [VX-702] + O=C(c1cc(Cc2n[nH]c(=O)c3ccccc23)ccc1F)N1CCN(C(=O)C2CC2)CC1 [Olaparib] (partner 8 µM)
Outline: as §1

| Cell Line | relative viability (VX-702 + Pemetrexed; first compound 0.02 µM) | relative viability (VX-702 + Pemetrexed; first compound 0.2 µM) | relative viability (VX-702 + Pemetrexed; first compound 0.6325 µM) | relative viability (VX-702 + Pemetrexed; first compound 2 µM) | relative viability (Dabrafenib + Linsitinib; first compound 0.009487 µM) | relative viability (Dabrafenib + Linsitinib; first compound 0.09487 µM) | relative viability (Dabrafenib + Linsitinib; first compound 0.3 µM) | relative viability (VX-702 + Crizotinib; first compound 0.02 µM) | relative viability (VX-702 + Crizotinib; first compound 0.2 µM) | relative viability (VX-702 + Crizotinib; first compound 0.6325 µM) | relative viability (VX-702 + Crizotinib; first compound 2 µM) | relative viability (VX-702 + Olaparib; first compound 0.02 µM) | relative viability (VX-702 + Olaparib; first compound 0.2 µM) | relative viability (VX-702 + Olaparib; first compound 0.6325 µM) | relative viability (VX-702 + Olaparib; first compound 2 µM) | relative viability (Dabrafenib + Linsitinib; first compound 0.03 µM) | relative viability (Dabrafenib + Linsitinib; first compound 0.003 µM) |
| --- | --- | --- | --- | --- | --- | --- | --- | --- | --- | --- | --- | --- | --- | --- | --- | --- | --- |
| NCI-H322M | 0.61 | 0.611 | 0.633 | 0.578 | 1.02 | 0.874 | 0.895 | 1.04 | 0.861 | 1.01 | 1.08 | 1.26 | 0.839 | 0.806 | 0.929 | – | – |
| HCC-366 | 0.171 | 0.149 | 0.203 | 0.165 | 0.787 | 0.549 | 0.892 | 0.588 | 0.396 | 0.525 | 0.601 | 0.409 | 0.361 | 0.353 | 0.269 | 0.0905 | – |
| NCI-H1355 | 1.05 | 1.01 | 1.02 | 1.09 | 0.858 | – | 0.823 | 1.09 | 1.05 | 1.01 | 1.04 | 0.752 | 0.729 | 0.785 | 0.876 | 0.682 | – |
| LC-2-ad | 0.275 | 0.271 | 0.269 | 0.274 | 0.768 | 0.764 | 0.851 | 0.502 | – | 0.449 | 0.504 | 0.724 | 0.678 | 0.799 | 0.776 | 0.802 | 0.93 |
| NCI-H2087 | 0.703 | 0.657 | 0.681 | 0.656 | 0.862 | 0.805 | 0.638 | 0.847 | 0.862 | 0.867 | 0.739 | 0.552 | 0.58 | 0.669 | 0.709 | 0.779 | 0.979 |
| BEN | 0.825 | 0.689 | 0.623 | 0.86 | 0.986 | 0.883 | 0.938 | 0.732 | 0.781 | 0.937 | 0.956 | 0.781 | 0.89 | 0.991 | 1.06 | – | – |
| NCI-H2228 | 0.338 | 0.336 | 0.37 | 0.342 | 0.839 | 0.782 | 0.81 | 0.628 | 0.536 | 0.394 | 0.45 | 0.866 | 0.794 | 0.754 | 0.864 | 0.524 | 0.579 |
| HCC-827 | 0.244 | 0.252 | 0.287 | 0.18 | 0.964 | 0.998 | 0.974 | 0.922 | 0.9 | 0.869 | 0.906 | 0.648 | 0.603 | 0.59 | 0.562 | 0.96 | 0.905 |
| IA-LM | – | – | – | – | 0.575 | 0.283 | 0.424 | 0.792 | 0.862 | 0.722 | 1.05 | 0.833 | 0.841 | 0.994 | 0.937 | 0.547 | 0.443 |
| NCI-H522 | 1.08 | 0.891 | 0.971 | 0.999 | – | – | – | – | – | – | – | 0.754 | 0.678 | 0.667 | 0.619 | – | – |
